Source: US4742083A, “Method of relieving pain and inflammatory conditions employing substituted salicylamides” (Lever Brothers Company, priority 1985, dated 1988)

Tests used:
mice backs (skin) = conditions: topical application to mice backs, in vivo tumor promotion studies; cited from earlier work
[1] = tested on: inflammation of mice ears caused by calcium ionophore (A-23187); test: Reduction of A-23187-induced ear inflammation (edema and erythema), Examples 4-7, each animal its own control; type: in vivo, male outbred hairless mice; conditions: for anti-inflammatory activity (in words): at the concentration used (1.5 micromole topical); for reduction of inflammation (reference anti-inflammatories): topical, 30 minutes after application of A-23187
Description: In a group of 5 male outbred hairless mice, inflammation is induced on their ears by the topical application thereto of 4.0 nmole in acetone solution (total volume 10 microliter) of the known divalent calcium ionophore (antibiotic A-23187), which is derived from Streptomyces chartreusis and is a member of a known class of compounds showing ionophoric activity. See, e.g. Pressman, B. C., "Biological Applications of Ionophores", Ann. Rev. Biochem., 45, 501, 1976. […] See Marks, F., Furstenberger, G., and Kownatzki, E., "Prostaglandin E-mediated Mitogenic Stimulation of Mouse Epidermis in vivo by divalent cation ionophore A-23187 and by tumor promoter 12-O-tetradecanoyl phorbol-13-acetate, Cancer Res., 41, 696, 1981.
In each animal only one ear is treated, the other untreated ear serving as a control.
In Examples 4, 5 and 6 the compounds AN-10, APCF3-8 and AMCF3-8, respectively, are topically applied to the treated ears of different groups of five male outbred hairless mice 30 minutes following the topical application thereto of the ionophore A-23187. Specifically, 1.5 micromole of the amido compound in acetone solution (total volume 10 microliters) is applied topically to treated male outbred hairless mice ears 30 min. after topical application thereto of a calcium ionophore (A-23187, 4.0 nmole total volume to 10 microliter) in acetone. As already noted, in each case, each animal serves as its own control in that only one ear is subjected to said test regime while the other ear is left untouched. Erythema and edema are assessed 4 hrs. after application of the ionophore. In Control Example 7, 3,4',5-tribromosalicylanilide (TBS) is applied in the same manner.

[2] = tested on: inflammation of mice ears caused by antibiotic A-23187; test: Reduction of A-23187-induced ear edema by ear weights, Examples 8-14; type: in vivo, hairless outbred mice (Skh:hr-1 strain); conditions: for Reduction in Edema (%), Study B: Day 2, 1.5 micromole per 10 microliter, A-23187 (4 nmole), sacrifice from 4 hours; for antiinflammatory activity (in words): under the test conditions of Table 2
Description: (§1) Acute inflammation is induced by the application of 4 nano mole of the antibiotic A-23187 to the ears of young, male, adult hairless outbred mice (Skh:hr-1 strain). Thereafter, one of the compounds AN-10, AMCF3-8, ACBXE-9, acryloyl AN-10, S-4-F and SAN-6 is applied to the affected ears and the degree of reduction in edema (inflammation) noted.
The method used in the subject Examples differs from the method used in the preceding Examples (4 through 7) in two respects.
Secondly, in the expression of the data, the objective parameter of ear weights is used as the sole data source (for the reduction of edema) as erythematous responses are not recorded. Ear weights are determined by sacrificing the animals four hours after initial application of the antibiotic A-23187 or other control material by the use of CO2 gas. Thereafter, the ears are excised by cutting along the characteristic ridge readily discernible along the inner aspect of the ears. Wet and dry ear weights are used to determine the extent of the edema or inflammation present.
In Study A, 28 test animals are randomized into four treatment groups of seven each and subjected to the following ear treatment regimen:
Each animal is dosed with a treatment consisting of a 10 microliter quantity of the assigned test material solution (or pure acetone in the case of the animals of Group D) applied to the outer aspect of both ears, i.e., 10 microliter of test material per ear. The concentrations of the respective materials in acetone solution are such that a 10 microliter dose of a solution of the antibiotic A-23187 contains 4 nano mole of such antibiotic. The corresponding quantity in the case of the AN-10 in acetone solution is 1.5 micromole. The animals of Groups A and B are initially treated with the acetone solution of A-23187. In the case of the animals of Group B alone, 10 microliter of the acetone solution of AN-10 is applied to the affected ears 1/2 hour after the application of the above-mentioned quantity of a solution in acetone of the antibiotic A-23187. The animals of Group C receive a 10 microliter dose per ear of the AN-10 in acetone solution alone. The animals of Group D receive a dose of 10 microliter per ear of pure acetone. All the test subjects are sacrificed four hours after the application of A-23187 to the animals of Groups A and B or the other test materials in the case of the animals of Groups C and D. The results are summarized in Table 2 noted below.
(§2) A second group of studies (Study B) is conducted on two consecutive days with two sets of mice (totalling 80 animals) received from the same shipment.
On Day 2, using the second set of 40 mice, sub-divided into 8 groups of 5 each, the six compounds in question are applied as acetone solutions in the manner described under Study A to mice ears inflamed with A-23187 again, as described in Study A above. As with the studies conducted on Day 1, the remaining two groups of 5 animals each serve as controls and their ears are dosed with A-23187 and acetone respectively.
(§3) The amount of each salicylamide compound applied is kept constant, for Days 1 and 2, at 1.5 micromole per 10 microliter of test solution. Sacrifice begins four hours after application A-23187, on both days, and the results are recorded. Table 2 summarizes the results of the regimen of testing involved with each one of the 30 animals in question on Day 2 with the remaining 10 animals serving as controls as already noted.

untreated mice ears = test: Inflammatory potential on untreated mice ears (Study B, Day 1); type: in vivo, hairless outbred mice (Skh:hr-1 strain); conditions: 1.5 micromole per 10 microliter on untreated ears
Procedure: as §1, §2
The first batch of 40 animals is divided into 8 groups of 5 each. […] The remaining two groups of 5 animals each serve as controls and their ears are dosed with A-23187 and acetone respectively.
as §3

[3] = single dose oral route, Osborne-Mendel white rats, sixteen females; cited from earlier work
[4] = comparison; oral, rats; cited from earlier work
[5] = 1.5 micromole topical, 30 min after A-23187 (4.0 nmole), assessed 4 hrs after ionophore

## CNc1ccc2oc(C[C@H]3O[C@@]4(CC[C@H]3C)O[C@H]([C@H](C)C(=O)c3ccc[nH]3)[C@H](C)C[C@H]4C)nc2c1C(=O)O [A-23187]
Mice backs (skin)
  skin irritation: potent ability to cause skin irritation
[1]; within 4 hours following topical application, time and dose dependent
  acute inflammation on treated ears after topical A-23187: Acute inflammation develops

## CCCCCCCCC(=O)c1ccc(O)c(C(=O)Nc2cccc(C(=O)OCC)c2)c1 [ACBXE-9]
[2]; ear weights
  Reduction in Edema (%), Study B: 76%
[2]
  antiinflammatory activity (in words): significant antiinflammatory activity
Untreated mice ears
  noticeable inflammation (inflammatory potential): none of the six compounds being tested cause any noticeable inflammation

## CCCCCCCC(=O)c1ccc(O)c(C(=O)Nc2cccc(C(F)(F)F)c2)c1 [AMCF3-8]
[2]; ear weights
  Reduction in Edema (%), Study B: 81%
[2]
  antiinflammatory activity (in words): significant antiinflammatory activity
Untreated mice ears
  noticeable inflammation (inflammatory potential): none of the six compounds being tested cause any noticeable inflammation
[1]
  anti-inflammatory activity (in words): effective anti-inflammatories

## CCCCCCCCCC(=O)c1ccc(O)c(C(=O)Nc2ccc([N+](=O)[O-])cc2)c1 [AN-10]
[2]; Study A, 1.5 micromole per ear, 1/2 hour after A-23187 (4 nmole), sacrificed at 4 hours, ear weights
  Reduction in Edema (%), Study A: 55%
[2]; ear weights
  Reduction in Edema (%), Study B: 81%
[2]
  antiinflammatory activity (in words): significant antiinflammatory activity
Untreated mice ears
  noticeable inflammation (inflammatory potential): none of the six compounds being tested cause any noticeable inflammation
[1]
  anti-inflammatory activity (in words): effective anti-inflammatories
[3]
  LD50: greater than 2000 mg./kg.

## CCCCCCCC(=O)c1ccc(O)c(C(=O)Nc2ccc(C(F)(F)F)cc2)c1 [APCF3-8]
[1]
  anti-inflammatory activity (in words): effective anti-inflammatories

## CCCCc1ccc(O)c(C(=O)Nc2cccc(C(F)(F)F)c2)c1 [S-4-F]
[2]; ear weights
  Reduction in Edema (%), Study B: 70%
[2]
  antiinflammatory activity (in words): significant antiinflammatory activity
Untreated mice ears
  noticeable inflammation (inflammatory potential): none of the six compounds being tested cause any noticeable inflammation

## CCCCCCc1ccc(O)c(C(=O)Nc2ccc([N+](=O)[O-])cc2)c1 [SAN-6]
[2]; ear weights
  Reduction in Edema (%), Study B: 59%
[2]
  antiinflammatory activity (in words): significant antiinflammatory activity
Untreated mice ears
  noticeable inflammation (inflammatory potential): none of the six compounds being tested cause any noticeable inflammation

## O=C(Nc1ccc(Br)cc1)c1cc(Br)cc(Br)c1O [TBS, 3,4',5-tribromosalicylanilide]
[1]; [5]
  Reduction in Edema (%): 12%
  Reduction in Erythema (%): 35%
[1]
  anti-inflammatory activity (in words): essentially inactive

## C=CC(=O)Oc1ccc(C(=O)CCCCCCCCC)cc1C(=O)Nc1ccc([N+](=O)[O-])cc1 [acryloyl AN-10]
[2]; ear weights
  Reduction in Edema (%), Study B: 82%
[2]
  antiinflammatory activity (in words): significant antiinflammatory activity
Untreated mice ears
  noticeable inflammation (inflammatory potential): none of the six compounds being tested cause any noticeable inflammation

## CC(=O)Oc1ccccc1C(=O)O [aspirin, acetylsalicylic acid]
[4]
  LD50 (comparable toxicity of aspirin): about 1.75 g/kg. body weight

## C[C@]12CCC(=O)C=C1CC[C@@H]1[C@@H]2[C@@H](O)C[C@@]2(C)[C@H]1CC[C@]2(O)C(=O)CO [hydrocortisone]
[1]
  reduction of inflammation (reference anti-inflammatories): reduction of inflammation

## COc1ccc2c(c1)c(CC(=O)O)c(C)n2C(=O)c1ccc(Cl)cc1 [indomethacin]
[1]
  reduction of inflammation (reference anti-inflammatories): reduction of inflammation
